US20100124538A1, “TOPICAL APPLICATION OF FLUOCINOLONE ACETONIDE FOR DEPIGMENTATION OF THE SKIN” (GALDERMA RESEARCH & DEVELOPMENT, priority 2007, published 2010)

Key:
melasma [1] = settings: cited from earlier work
tail of SKH:HR2 mice [2] = assay: Clinical pigmentation score on the tail of SKH:HR2 mice after topical application; type: in vivo; settings: for depigmenting activity (clinical pigmentation score): 4 weeks
Method: (§1) The depigmenting activity of fluocinolone acetonide and of hydrocortisone was evaluated on the tail of female SKH:HR2 mice that were 6 weeks old at the beginning of the study. The products were applied topically (20 μl of product to the tail), 5 days a week for 4 weeks. Each group contains 5 animals:
Clinical observations: once a week the pigmentation is scored on a scale ranging from 0 (base pigmentation) to −4 (total depigmentation).
The depigmenting activities of three corticosteroids, fluocinolone acetonide, desonide and β-methasone valerate, were evaluated on the tail of female SKH:HR2 mice that were 8 weeks old at the beginning of the study. The products were applied topically (20 μl of product to the tail), 5 days a week for 5 weeks. Each group contains 6 animals.
Clinical observations: once a week, the pigmentation is scored on a scale ranging from 0 (base pigmentation) to −4 (total depigmentation).
The depigmenting activity of fluocinolone acetonide and of desonide was evaluated on the tail of female SKH:HR2 mice that were 8 weeks old at the beginning of the study. The products were applied topically (20 μl of product to the tail), 5 days a week for 4 weeks.

tail of SKH:HR2 mice [3] = assay: Fontana-Masson-positive surface area in living epidermis of the tail (histology, image analysis); type: in vivo; settings: 4 weeks
Method: as §1
A tail skin sample is taken at the end of the study and fixed with formol in order to carry out a histological analysis.
The epidermal surface area taken up by melanin is measured by image analysis on histological sections stained by the Fontana-Masson technique, which makes it possible to reveal the pigments. For each animal, the Fontana-Masson-positive surface area is measured by image analysis on five fields of interfollicular epidermis and weighted with respect to the length of corresponding epidermis in order to avoid any possible bias due to hyperplasia or atrophy of the epidermis. Since the horny layer is partially lost during the treatment of the samples, the measurement is carried out only in the living layers of the epidermis.

melasma [4] = settings: monotherapy; cited from earlier work

CCC(=O)O[C@]1(C(=O)CCl)[C@@H](C)C[C@H]2[C@@H]3CCC4=CC(=O)C=C[C@]4(C)[C@@]3(F)[C@@H](O)C[C@@]21C [clobetasol propionate]
cases in which treatment had to be stopped due to local atrophy and telangiectasiae (melasma [1]; 0.05% topical, stopped after 4 weeks): 30% | patients with lightening in whom the melasma reappeared at the same sites (melasma [1]; 2 to 3 weeks after the treatment had been stopped): 57%

CC1(C)O[C@@H]2C[C@H]3[C@@H]4C[C@H](F)C5=CC(=O)C=C[C@]5(C)[C@@]4(F)[C@@H](O)C[C@]3(C)[C@]2(C(=O)CO)O1 [fluocinolone acetonide]
depigmenting activity (clinical pigmentation score) (tail of SKH:HR2 mice [2]; Example 1, 0.0005% topical): remains substantial | depigmentation of the tail (clinical pigmentation score) (tail of SKH:HR2 mice [2]; Example 1, 0.01% topical, 5 days a week, after 4 weeks, compared with hydrocortisone at same concentration): marked depigmentation | depigmentation observed (clinical pigmentation score) (tail of SKH:HR2 mice [2]; Example 2, 0.01% topical, after 5 weeks): virtually total | depigmenting activity compared with other corticosteroids (tail of SKH:HR2 mice [2]; Example 2, equivalent concentration of 0.01%, 5 weeks): greater depigmenting activity than desonide and than β-methasone valerate | depigmenting activity (clinical pigmentation score) (tail of SKH:HR2 mice [2]; Example 3, 0.005% topical): very significant depigmenting activity | depigmenting activity compared with desonide (tail of SKH:HR2 mice [2]; Example 3, equivalent concentration, throughout the study (4 weeks)): remains greater than that of desonide | decrease in the Fontana-Masson-positive surface area in the living layers of the tail epidermis (tail of SKH:HR2 mice [3]; 0.0005% topical): 72% | decrease in the Fontana-Masson-positive surface area in the living layers of the tail epidermis (tail of SKH:HR2 mice [3]; 0.01% topical): 85%

C[C@]12CCC(=O)C=C1CC[C@@H]1[C@@H]2[C@@H](O)C[C@@]2(C)[C@H]1CC[C@]2(O)C(=O)CO [hydrocortisone]
depigmenting activity (clinical pigmentation score) (tail of SKH:HR2 mice [2]; Example 1, 0.01% increased to 0.5% topical): only a very weak depigmenting activity | change of Fontana-Masson-positive surface area (tail of SKH:HR2 mice [3]; up to the concentration of 0.5% topical): does not significantly modify

Oc1ccc(O)cc1 [hydroquinone]
time necessary to obtain a significant result (melasma [4]): 12 weeks

CC1=C(/C=C/C(C)=C/C=C/C(C)=C/C(=O)O)C(C)(C)CCC1 [tretinoin]
time necessary to obtain a significant result (melasma [4]): 40 weeks
